Test results: patent publication US20040044006A1, “Methods of use of quinolone compounds against pneumococcal and haemophilus bacteria” (priority 1999, published 2004)
≈ marks a conversion by molar mass, not a printed value. Read-outs that look alike come from different tables or passages of the source.

Key:
[1] = tested on: quinolone susceptible pneumococci (ciprofloxacin MICs ≦4.0 μg/ml); experiment: Agar dilution MICs of 207 quinolone susceptible pneumococcal strains; format: cell-based, Streptococcus pneumoniae; conditions: Streptococcus pneumoniae, agar dilution; for MIC90: read-out: MIC90; for MIC: read-out: MIC range
Method: All susceptible, and some intermediate and resistant strains, were recent U.S. isolates. The remainder of intermediate and resistant strains were isolated in South Africa, Spain, France, Central and Eastern Europe, and Korea. […] Additionally these strains were tested for mutations in parC, gyrA, parE, and gyrB (Pan, et al., Antimicrob. Agents Chemother. 40:2321-2326, 1996) and for efflux mechanism (Brenwald, et al., Antimicrob. Agents Chemother. 42:2032-2035, 1998). For time-kill studies, 4 penicillin susceptible, 4 intermediate and 4 resistant strains (2 quinolone resistant) were tested, while for PAE studies 5 quinolone susceptible and 1 resistant strains were studied.
(§1) Agar dilution methodology was performed on 234 strains as described previously (M. R. Jacobs, Clin. Infect. Dis. 15:119-127, 1992; Jacobs, et al., Rev. Med. Microbiol. 6:77-93, 1995), using Mueller-Hinton agar (BBL Microbiology Systems, Cockeysville, Md.) supplemented with 5% sheep blood. Broth MICs for 12 strains tested by time-kill and 6 tested by PAE were performed according to NCCLS recommendations (Methods for Dilution Antimicrobial Susceptibility Tests for Bacteria that Grow Aerobically, 3rd Edition, NCCLS, Villanova, Pa.) using cation-adjusted Mueller-Hinton broth with 5% lysed defibrinated horse blood. Standard quality control strains, including Streptococcus pneumoniae ATCC 49619, were included in each run of agar and broth dilution MICs.

pneumococcal strains = experiment: Microbroth dilution MICs of strains tested by time-kill and PAE; format: cell-based; conditions: Streptococcus pneumoniae, read-out: Microdilution MIC
Method: as §1

[2] = tested on: penicillin susceptible and resistant pneumococcal strains (2 quinolone resistant); experiment: Time-kill testing of 12 pneumococcal strains; format: cell-based, Streptococcus pneumoniae; conditions: 12 penicillin susceptible and resistant pneumococcal strains; 24 h; bactericidal = ≧3 log10 cfu/ml (99.9%) reduction
Method: For time-kill studies, glass tubes containing 5 ml cation-adjusted Mueller-Hinton broth (Difco)+5% lysed horse blood with doubling antibiotic concentrations were inoculated with 5×10^5 to 5×10^6 cfu/ml and incubated at 35° C. in a shaking water bath. […] Growth controls with inoculum but no antibiotic were included with each experiment (Pankuch, et al., Antimicrob. Agents Chemother. 38:2065-2072, 1994; Pankuch, et al., Antimicrob. Agents Chemother. 40:1653-1656, 1996).
Lysed horse blood was prepared as described previously. The bacterial inoculum was prepared by diluting a 16 h broth (medium as above) culture in the same medium. Dilutions required to obtain the correct inoculum (5×10^5-5×10^6 cfu/ml) were determined by prior viability studies using each strain (Pankuch, et al., Antimicrob. Agents Chemother. 38:2065-2072, 1994; Pankuch, et al., Antimicrob. Agents Chemother. 40: 1653-1656, 1996).
To inoculate each tube of serially diluted antibiotic, 50 μl of diluted inoculum was delivered by pipette beneath the surface of the broth. Tubes were then vortexed and plated for viability counts within 10 min (approximately 0.2 h). The original inoculum was determined by using the untreated growth control. Only tubes containing an initial inoculum within the range of 5×10^5 to 5×10^6 cfu/ml were acceptable (Pankuch, et al., Antimicrob. Agents Chemother. 38:2065-2072, 1994; Pankuch, et al., Antimicrob. Agents Chemother. 40:1653-1656, 1996).
Viability counts of antibiotic-containing suspensions were performed by plating ten-fold dilutions of 0.1 ml aliquots from each tube in sterile Mueller-t-Hinton broth onto trypticase soy agar 5% sheep blood agar plates (BBL). Recovery plates were incubated for up to 72 h. Colony Counts were performed on plates yielding 30-300 colonies. The lower limit of sensitivity of colony counts was 300 cfu/ml (Pankuch, et al., Antimicrob. Agents Chemother. 38:2065-2072, 1994; Pankuch, et al., Antimicrob. Agents Chemother. 40:1653-1656, 1996).
Time-kill assays were analysed by determining the number of strains which yielded a log10 cfu/ml of −1, −2 and −3 at 0, 3, 6, 12 and 24 h, compared to counts at time 0 h. Antimicrobials were considered bactericidal at the lowest concentration that reduced the original inoculum by ≧3 log10 cfu/ml (99.9%) at each of the time periods, and bacteriostatic if the inoculum was reduced by 0-3 log10 cfu/ml. […] The problem of bacterial carryover was addressed as described previously. For macrolide time-kill testing, only strains with MICs≦4.0 μg/ml were tested (Pankuch, et al., Antimicrob. Agents Chemother. 38:2065-9072, 1994; Pankuch, et al., Antimicrob. Agents Chemother. 40:1653-1656, 1996).

[3] = tested on: pneumococci (5 quinolone susceptible and 1 resistant strains); experiment: Post-antibiotic effect (PAE) testing; format: cell-based, Streptococcus pneumoniae; conditions: 10×MIC; range over strains
Method: The post-antibiotic effect (PAE) (Craig, et al., V. Lorian (ed.) Antibiotics in Laboratory Medicine, Williams and Wilkins, Baltimore, pages 296-399, 1996) was determined by the viable plate count method, using Mueller-Hinton broth (MHB) supplemented with 5% lysed horse blood when testing pneumococci. […] Additionally, the one quinolone resistant strain was exposed at quinolone concentrations 5×MIC. Tubes containing 5 ml broth with antibiotic were inoculated with approximately 5×10^6 cfu/ml. Growth controls with inoculum but no antibiotic were included with each experiment. Tubes were placed in a shaking water bath at 35° C. for 1 h. At the end of the exposure period, cultures were diluted 1:1000 to remove antibiotic.
Viability counts were determined before exposure and immediately after dilution (0 h), and then every 2 h until tube turbidity reached a #1 McFarland standard. Inocula were prepared by suspending growth from an overnight blood agar plate in broth. The broth was incubated at 35° C. for 2-4 h in a shaking water bath until turbidity matched a #1 McFarland standard, and checked for viability by plate counts (Spangler, et al., Antimicrob. Agents Chemother. 41:2173-9176, 1997; Spangler, et al., Antimicrob. Agents Chemother. 42:1253-1255, 1998).
The PAE was defined as PAE=T-C; T=time required for viability counts of an antibiotic-exposed culture to increase by 1 log10 above counts immediately after dilution; C=corresponding time for growth control. For each experiment, viability counts (log10 cfu/ml) were plotted against time, and results expressed as the mean of two separate assays±S D (Craig, et al., V. Lorian (ed), Antibiotics in Laboratory Medicine, Williams and Wilkins, Baltimore, pages 296-329, 1996).

[4] = strain 1 (S) penicillin susceptible
[5] = strain 2 (S) penicillin susceptible
[6] = strain 3 (S) penicillin susceptible, quinolone-resistant
[7] = strain 4 (S) penicillin susceptible, quinolone-resistant
[8] = strain 5 (I) penicillin intermediate
[9] = strain 8 (I) penicillin intermediate
[10] = strain 9 (R) penicillin resistant
[11] = strain 11 (R) penicillin resistant
[12] = strain 12 (R) penicillin resistant

MIC90 ([1]; Penicillin I strains)	MIC ([1]; Penicillin I strains)	MIC50 ([1]; Penicillin R strains)	MIC90 ([1]; Penicillin R strains)	MIC ([1]; Penicillin R strains)	MIC50 ([1]; Penicillin S strains)	MIC90 ([1]; Penicillin S strains)	MIC ([1]; Penicillin S strains)	SMILES	MIC (pneumococcal strains; [4])	MIC (pneumococcal strains; [5])	MIC (pneumococcal strains; [6])	MIC (pneumococcal strains; [7])	MIC (pneumococcal strains; [8])	MIC (pneumococcal strains; [9])	MIC (pneumococcal strains; [10])	MIC (pneumococcal strains; strain 10 (I))	MIC (pneumococcal strains; [11])	MIC (pneumococcal strains; [12])	concentration at which bactericidal after 24 h [2]	PAE for non-quinolone compounds [3]	also measured
1 µg/mL (≈ 2.74 µM)	0.016 to 4 µg/mL (≈ 0.0438 to 10.9 µM)	2 µg/mL (≈ 5.47 µM)	4 µg/mL (≈ 10.9 µM)	0.5 to 8 µg/mL (≈ 1.37 to 21.9 µM)	0.016 µg/mL (≈ 0.0438 µM)	0.06 µg/mL (≈ 0.164 µM)	0.008 to 0.25 µg/mL (≈ 0.0219 to 0.684 µM)	CC1(C)S[C@@H]2[C@H](NC(=O)[C@H](N)c3ccc(O)cc3)C(=O)N2[C@H]1C(=O)O [Amoxicillin, amoxicillin]	0.016 µg/mL (≈ 0.0438 µM)	0.016 µg/mL (≈ 0.0438 µM)	0.008 µg/mL (≈ 0.0219 µM)	0.008 µg/mL (≈ 0.0219 µM)	0.03 µg/mL (≈ 0.0821 µM)	0.06 µg/mL (≈ 0.164 µM)	1 µg/mL (≈ 2.74 µM)	1 µg/mL (≈ 2.74 µM)	2 µg/mL (≈ 5.47 µM)	2 µg/mL (≈ 5.47 µM)	2 ×MIC	0.3 to 5.8 h	
2 µg/mL (≈ 4.71 µM)	0.125 to 8 µg/mL (≈ 0.295 to 18.9 µM)	8 µg/mL (≈ 18.9 µM)	16 µg/mL (≈ 37.7 µM)	0.5 to 32 µg/mL (≈ 1.18 to 75.4 µM)	0.03 µg/mL (≈ 0.0707 µM)	0.25 µg/mL (≈ 0.589 µM)	0.008 to 2 µg/mL (≈ 0.0189 to 4.71 µM)	CO/N=C(\C(=O)N[C@@H]1C(=O)N2C(C(=O)O)=C(COC(N)=O)CS[C@H]12)c1ccco1 [Cefuroxime, cefuroxime]	0.5 µg/mL (≈ 1.18 µM)	0.25 µg/mL (≈ 0.589 µM)	0.016 µg/mL (≈ 0.0377 µM)	0.016 µg/mL (≈ 0.0377 µM)	0.5 µg/mL (≈ 1.18 µM)	0.25 µg/mL (≈ 0.589 µM)	2 µg/mL (≈ 4.71 µM)	0.5 µg/mL (≈ 1.18 µM)	4 µg/mL (≈ 9.43 µM)	2 µg/mL (≈ 4.71 µM)	4 ×MIC	0.8 to 2.9 h	MIC50 ([1]; Penicillin I strains): 0.5 µg/mL (≈ 1.18 µM); MIC (pneumococcal strains; strain 6 (I) penicillin intermediate): 0.5 µg/mL (≈ 1.18 µM); MIC (pneumococcal strains; strain 7 (I) penicillin intermediate): 0.5 µg/mL (≈ 1.18 µM)
